From PMC10092101 (Chemmedchem, 2022)

How the values were obtained:
GPR1 = settings: ref [13], [22]; cited from earlier work
CMKLR1 [1] = settings: ref [13], [22]; cited from earlier work
CCRL2 = settings: cited from earlier work
Nluc‐GPR1‐eYFP = target: T1, Nluc‐GPR1‐eYFP (human, UniProt P46091 1-355); test: FRET or BRET
T1 sequence: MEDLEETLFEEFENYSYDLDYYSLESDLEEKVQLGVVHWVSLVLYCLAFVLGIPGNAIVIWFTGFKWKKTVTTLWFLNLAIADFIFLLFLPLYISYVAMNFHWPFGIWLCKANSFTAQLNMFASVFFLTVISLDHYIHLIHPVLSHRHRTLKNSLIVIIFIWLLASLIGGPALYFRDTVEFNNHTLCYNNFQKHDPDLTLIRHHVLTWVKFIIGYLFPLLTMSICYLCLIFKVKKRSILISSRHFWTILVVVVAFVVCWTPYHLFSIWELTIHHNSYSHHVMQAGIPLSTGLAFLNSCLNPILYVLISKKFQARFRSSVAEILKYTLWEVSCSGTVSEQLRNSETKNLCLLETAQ

Nluc‐CMKLR1‐eYFP = target: T2, Nluc‐CMKLR1‐eYFP (human, UniProt Q99788-2 1-371); test: FRET or BRET
T2 sequence: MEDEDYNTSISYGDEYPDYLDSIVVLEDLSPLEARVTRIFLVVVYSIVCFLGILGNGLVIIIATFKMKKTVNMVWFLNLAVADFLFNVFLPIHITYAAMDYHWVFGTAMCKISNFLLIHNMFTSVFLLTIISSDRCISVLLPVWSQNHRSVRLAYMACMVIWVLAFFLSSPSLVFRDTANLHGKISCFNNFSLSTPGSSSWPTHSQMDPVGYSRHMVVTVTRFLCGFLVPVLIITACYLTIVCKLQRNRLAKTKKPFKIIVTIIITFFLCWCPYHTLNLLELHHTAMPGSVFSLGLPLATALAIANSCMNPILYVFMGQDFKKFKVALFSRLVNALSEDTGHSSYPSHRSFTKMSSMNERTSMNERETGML

CMKLR1 [2] = target: T3, CMKLR1 (Homo sapiens, UniProt Q99788); test: IP-One assay; format: cell-based; settings: [K^141(TAMRA)]ChemS157 vs ChemS157, COS-7 cells
T3 sequence (Q99788 1-371 isoform Q99788-2): T2 sequence

Nluc‐GPR1 = target: T4, Nluc‐GPR1 (Homo sapiens, UniProt P46091); test: NanoBRET saturation binding at Nluc-GPR1; settings: Nluc-GPR1 vs Nluc-CMKLR1
T4 sequence (P46091 1-355): T1 sequence

Q: Which binding affinity (GPR1) does the source give for “ChemS157: most active chemerin form truncated at position S157, 137 amino acids; full‐length protein by recombinant expression” here?
A: high affinity

Q: And the binding affinity (CMKLR1 [1])?
A: high affinity

Q: And the binding affinity (CCRL2; ref [13], [22])?
A: high affinity

Q: With “chemerin: 16 kDa protein expressed in liver, skin, lung or white adipose tissue; adipokine” as the molecule, how does the “cellular response at CCRL2” value (CCRL2; described to bind chemerin, no reference printed directly) read?
A: leads to no cellular response

B1: [K^141(TAMRA)]ChemS157 (ligand)
chain: ELTEAQRRGLQVALEEFHKHPPVQWAFQETSVESAVDTPFPAGIFVRLEFKLQQTSCRKRDWKKPECKVRPNGRKRKCLACIKLGSEDKVLGRLVHCPIETQVLREAEEHQETQCLRVQRKGEDPHSFYFPGQFAFS
modifications: TAMRA on the side chain of lysine 141
Q: What does the source list for B1?
A: EC50 (Nluc‐GPR1‐eYFP): 112 nM; EC50 (Nluc‐CMKLR1‐eYFP): 75.9 nM

B2: [K^141(TAMRA)]ChemS157: TAMRA‐labeled full-length ChemS157, lysine 141 labeled, semi‐synthetic by native chemical ligation (protein)
chain: B1 chain
modifications: TAMRA on the side chain of lysine 141; left off: [His]10-[…], N-terminal, kept
Q: For B2, which “EC50 fold higher than ChemS157 without the TAMRA label” value (CMKLR1 [2]) is on record?
A: 2.5 fold

Q: And the “shift of EC50 between Nluc-CMKLR1 and Nluc-GPR1” value (Nluc‐GPR1)?
A: 1.5 fold
